The term IC50 denotes the concentration at which inhibition is half-maximal. A word on the CC50: it is the concentration giving 50% cytotoxicity.

For one data set, the target named is T1, MmIMPα (Mus musculus, UniProt P52293).
T1 construct: GST; made in house
The data set can be described thus: Thermostability assay (TSA), MmIMPα. Type of data set: binding. As to the method:
(§1) The effect of inhibitory compounds on IMPα thermostability was tested, as previously, using the fluorescent dye SYPRO Orange (Thermo Fisher Scientific, Waltham, MA, USA) and the Qiagen Rotor-Gene Q6 plex instrument programmed in the melt curve mode. Increasing concentrations of compound in 0.5 µL DMSO were added to 24.5 µL recombinant protein (2 µM) in phosphate-buffered saline (PBS). Next, 1 µL of SYPRO Orange dye was added, the reaction mixture heated at 0.5 °C/min from 27 °C to 90 °C, and the fluorescence intensity caused by the SYPRO Orange binding to the proteins monitored (excitation/emission: 530/555 nm). Tm is the temperature at which 50% of the protein is unfolded.

In the next data set the target is TgIMPα (Toxoplasma gondii, UniProt A0A125YID0). The data set can be described thus: Thermostability assay (TSA), TgIMPα. Type of data set: binding. As to the method:
as §1

The target in a further data set is T2, MmΔIBBIMPα (Mus musculus, UniProt P52293).
T2 construct: made in house
Briefly: AlphaScreen binding assay, MmΔIBBIMPα:T-ag-NLS-GFP interaction. As to the method: (§2) PfIMPα, TgIMPα, Mus musculus IMPα (MmIMPα), ΔIBBMmIMPα, and β1 (MmIMPβ) GST fusion proteins were expressed and purified essentially as previously. His-tagged TGS1-NLS-GFP, PfIMPα and TgIMPα proteins were purified using Ni^2+-affinity chromatography as described. His-tagged SV40 T-ag-NLS-GFP was purified as previously. Biotinylation of GST-tagged proteins was carried out using the Sulfo-NHS-Biotin reagent (Pierce, Rockford, IL, USA) as described previously. AlphaScreen binding assay was performed as described previously.
(§3) Plates were read for an Alphascreen signal on an Envision plate reader (PerkinElmer, Waltham, MA, USA), with signals from the negative control wells (no bait control) on each plate subtracted.
In general terms: In Alpha technology, singlet oxygen from a donor bead excites a nearby acceptor bead.

Data set [1] deals with T. gondii RH strain expressing the luciferase reporter (RH-Fluc). Briefly: T. gondii tachyzoite growth inhibition assay (RH-Fluc luciferase). The format is cell-based, Toxoplasma gondii. The conditions noted are these: for IC50: read-out: IC50 T. gondii; for T. gondii parasite killing: at 2 µM or less (Figure 7). The text has this:
T. gondii RH strain expressing the luciferase reporter (RH-Fluc) was derived to assess the effect of the inhibitors on growth. Briefly, plasmid pCTG-EGFP [42] was modified by replacing the coding sequence of EGFP with that of the firefly luciferase reporter, using restriction enzymes BglII and PstI (Thermo Fisher Scientific, Waltham, MA, USA). The resultant plasmid, pCTG-Fluc, expressing firefly luciferase constitutively under the control of the T. gondii TubulinA promoter, was electroporated into the T. gondii RH strain [43, 44] using a Bio-Rad GenePulser Xcell system (1500 V, 50 Ω and 25 µF) along with restriction enzyme NotI to initiate RE-Mediated Integration (REMI) of the linearized plasmid into the genome. The resultant stable T. gondii line expressing the luciferase reporter was selected for resistance to 20 µM chloramphenicol (encoded by the plasmid pCTG), and dilution cloning was performed to ultimately identify the clone (RH-Fluc) with the highest luciferase activity (c. 4 × 10^7 RLU from 10^7 parasites) used for growth assays. T. gondii tachyzoites were maintained and cultured at 37 °C in 5% CO2 in a humidified incubator in primary human foreskin fibroblasts (HFF, ATCC); HFF cells were maintained in Dulbecco’s modified Eagle medium (DMEM) (Gibco^TM, Waltham, MA, USA) supplemented with 3.7 g/L sodium bicarbonate and 2.38 g/L HEPES, 10% Cosmic Calf serum (Hyclone^TM, Logan, UT, USA) and 20 mg/L gentamicin [47, 48].
Growth inhibition was assessed by luminescence measurements as described. Briefly, 100 μL of culture medium with or without inhibitors was added to confluent monolayers of HFF cells grown in 96-well treated culture plates (Eppendorf, Hamburg, Germany), followed by 100 µL of DMEM containing 5000 parasites. After 48 h, 150 µL of the culture media was discarded from each well without aspirating any parasites, and 10 µL lysis buffer was added to lyse the parasites, followed by 50 μL of 2× luciferase assay reagent (Promega, Madison, WI, USA). Luminescence was measured directly for 10 s using a Varioskan™ LUX multimode microplate reader (Thermo Fisher Scientific, Waltham, MA, USA).

The target of a further data set is T3, MmIMPα/β heterodimer (Mus musculus, UniProt P52293).
T3 construct: GST; made in house
The data set can be described thus: AlphaScreen binding assay, MmIMPα/β:T-ag-NLS-GFP interaction. The conditions noted are these: compounds at 10 μM, MmIMPα/β (5 nM):T-ag-NLS-GFP (30 nM), relative to 1% DMSO control. As to the method: as §2, §3

The target in data set [2] is T4, PfIMPα (Plasmodium falciparum, UniProt Q8IAW0). Briefly: Thermostability assay (TSA), PfIMPα. The format is binding. The method, then: as §1
T4 sequence (Q8IAW0 entry or part of it): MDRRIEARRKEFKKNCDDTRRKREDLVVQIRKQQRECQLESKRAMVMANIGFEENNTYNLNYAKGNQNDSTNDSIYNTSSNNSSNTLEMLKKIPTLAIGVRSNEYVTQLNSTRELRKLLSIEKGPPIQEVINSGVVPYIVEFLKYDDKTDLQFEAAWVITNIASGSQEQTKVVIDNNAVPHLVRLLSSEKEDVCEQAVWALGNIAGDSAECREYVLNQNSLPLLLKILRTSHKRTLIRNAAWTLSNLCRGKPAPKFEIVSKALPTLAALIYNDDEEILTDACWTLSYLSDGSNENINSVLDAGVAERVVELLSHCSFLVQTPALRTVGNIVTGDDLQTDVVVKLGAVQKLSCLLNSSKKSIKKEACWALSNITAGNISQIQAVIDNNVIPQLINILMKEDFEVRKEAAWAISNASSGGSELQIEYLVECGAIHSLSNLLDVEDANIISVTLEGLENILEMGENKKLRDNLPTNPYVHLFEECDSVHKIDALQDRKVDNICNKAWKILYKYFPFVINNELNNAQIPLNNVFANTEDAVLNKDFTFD
The target in data set [3] is T4, PfIMPα. Type of data set: binding.
Another data set has as its system P. falciparum. Particulars: cited from earlier work.
In the next data set the test system is T. gondii tachyzoites. The conditions noted are these: cited from earlier work.
The test system of the next data set is HFF cells. The data set can be described thus: MTT assay for host cell cytotoxicity. The format is cell-based, human. The method, then: The MTT assay was used to measure the cytotoxicity of the small molecules against the HFF cells as described. Briefly, freshly confluent HFF cells in a 96-well culture plate were treated with increasing concentrations of compounds for 48 h, prior to the MTT assay.
A general note: Tetrazolium assays rely on reduction of a dye to a coloured formazan, in cell work by metabolically active cells.

The mark [4] stands for this setting: pooled, mean ± SEM (n = 3), read-out: IC50 MmΔIBBIMPα:T-ag-NLS.
The mark [5] stands for this setting: concentrations of 75 µM or higher.
The mark [6] stands for this setting: pooled, mean ± SEM (n = 3), read-out: IC50 PfIMPα:TGS1-NLS-GFP.
[7] abbreviates: compounds at 10 μM, ΔIBBMmIMPα (5 nM):T-ag-NLS-GFP (30 nM), relative to 1% DMSO control.
Where [8] appears, read: single experiment (Figure 3), IMPα 5 nM, NLS 30 nM, read-out: IC50 MmΔIBBIMPα:T-ag-NLS-GFP.
[9] abbreviates: 10 μM, 48 h, HFF cells infected with RH-Fluc (Figure 5B).
[10] abbreviates: parasites in culture, 48 h, pooled, mean ± SD (n = 3) (Table 3).
The mark [11] stands for this setting: single typical experiment (Figure 7), 48 h.
[12] abbreviates: concentrations higher than 20 µM.

Molecules are shown by their SMILES. Values joined by “and” are separate entries in the source; they are usually repeats but may differ in a detail not shown here. Identical values can stand only once. Like-named read-outs stand apart in the source and are kept apart here.

Chain of TgIMPα (A0A125YID0 entry or part of it): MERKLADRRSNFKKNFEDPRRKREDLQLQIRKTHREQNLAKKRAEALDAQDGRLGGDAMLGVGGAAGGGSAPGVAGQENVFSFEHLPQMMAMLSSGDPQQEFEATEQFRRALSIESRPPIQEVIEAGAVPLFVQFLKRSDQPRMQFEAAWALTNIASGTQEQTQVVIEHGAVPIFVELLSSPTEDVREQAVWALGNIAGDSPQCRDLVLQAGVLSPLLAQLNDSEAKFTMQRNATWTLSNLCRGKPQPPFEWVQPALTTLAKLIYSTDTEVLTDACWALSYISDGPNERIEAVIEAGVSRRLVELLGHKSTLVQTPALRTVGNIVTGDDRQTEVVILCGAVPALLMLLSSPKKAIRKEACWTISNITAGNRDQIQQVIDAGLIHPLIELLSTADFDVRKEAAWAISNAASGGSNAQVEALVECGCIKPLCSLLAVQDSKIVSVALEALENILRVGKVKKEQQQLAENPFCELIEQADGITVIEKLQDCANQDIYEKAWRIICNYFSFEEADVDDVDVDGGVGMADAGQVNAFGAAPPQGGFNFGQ

Regarding `O=C(/C=C/c1ccc(O)c(O)c1)OCCc1ccccc1` [CAPE, Caffeic acid phenethyl ester], the “change in stability of MmIMPα” value at MmIMPα (up to 100 µM) is on record as “did not elicit any marked change in stability”. Further, the “change in stability of TgIMPα” value on TgIMPα (up to 100 µM) is “did not elicit any marked change in stability”. Also, the inhibition at 10 µM at MmΔIBBIMPα (compounds at 10 μM, ΔIBBMmIMPα (5 nM):T-ag-NLS-GFP (30 nM), relative to 1% DMSO control, read-out: % Inhibition of IMPα-NLS Interaction MmΔIBBIMPα) amounted to 92%; in [1] (Toxoplasma gondii, 10 μM, 48 h, HFF cells infected with RH-Fluc (Figure 5B), read-out: reduction in luciferase activity, indicative of T. gondii growth inhibition) it was 5%; at MmIMPα/β heterodimer (read-out: % Inhibition of IMPα-NLS Interaction MmIMPα/β), 14%. In addition, the IC50 on MmΔIBBIMPα (setting [4]) was 700 ± 100 nM; in [1] (Toxoplasma gondii, parasites in culture, 48 h, pooled, mean ± SD (n = 3) (Table 3)), over 10000 nM. In addition, on PfIMPα [2] (setting [5]), the “increase in thermostability of PfIMPα” value worked out at 2 °C. Besides, at PfIMPα [2] (setting [5]), the “thermostability of PfIMPα reached” value was 47 °C.
Turning to `CC(=O)OC[C@H]1O[C@@H]([S-])[C@H](OC(C)=O)[C@@H](OC(C)=O)[C@@H]1OC(C)=O.CCP(CC)CC.[Au+]` [auranofin], the IC50 is 70 ± 10 nM on PfIMPα [3] (setting [6]); 60 to 80 nM on PfIMPα [3] (range over PfIMPα, TgIMPα and MmΔIBBIMPα interactions, read-out: IC50 values of all three IMPα:NLS interactions); 80 nM at PfIMPα [3] (single experiment (Figure 3), IMPα 5 nM, NLS 30 nM, read-out: IC50 PfIMPα:TGS1-NLS-GFP); 60 ± 10 nM on MmΔIBBIMPα (setting [4]); 50 nM on MmΔIBBIMPα (setting [8]); 2300 ± 800 nM in data set [1] (setting [10]). For the same compound, the half-inhibitory concentration (IC50) in data set [1] (setting [11]) worked out at 1900 nM. Further, the “activity against P. falciparum” value with P. falciparum was “possess activity”. For the same compound, the “activity against cultured T. gondii” value with T. gondii tachyzoites was “possess activity”. In addition, at MmIMPα (concentrations as low as 5 μM), the “MmIMPα stable only up to” value was 32–35 °C. Moreover, on MmIMPα (concentrations as low as 5 μM), the “reduction of thermostability of MmIMPα” value is 12–15 °C. For the same compound, the CC50 in the data set with HFF cells (MTT assay, 48 h, mean ± SD (n = 2), read-out: CC50 HFF cells) was found to be 5100 nM. Besides, in the data set on HFF cells (at concentrations < c. 5 µM), the “cytotoxicity to HFF cells” value was “essentially absent”. For the same compound, the “TgIMPα stable only up to” value on TgIMPα (concentrations as low as 5 μM) is 32–35 °C. The “reduction of thermostability of TgIMPα” value on TgIMPα (concentrations as low as 5 μM) was 12–15 °C. At MmΔIBBIMPα (setting [7]), the “% Inhibition of IMPα-NLS Interaction MmΔIBBIMPα” value turned out to be 91%. Besides, in data set [1] (setting [9]), the “reduction in luciferase activity, indicative of T. gondii growth inhibition” value is over 50%. Moreover, the “T. gondii parasite killing” value in data set [1] was at least 60%. The “% Inhibition of IMPα-NLS Interaction MmIMPα/β” value at MmIMPα/β heterodimer is given as 100%. Besides, at PfIMPα [2] (concentrations as low as 5 μM), the “PfIMPα stable only up to” value was 32–35 °C. Besides, the “reduction of thermostability of PfIMPα” value on PfIMPα [2] (concentrations as low as 5 μM) was 12–15 °C.
On to `CC(C)(C)c1ccc(S(=O)(=O)/C=C/C#N)cc1` [Bay 11-7085], for which the IC50 at PfIMPα [3] (setting [6]) was 2000 nM and 1900 nM; on MmΔIBBIMPα (setting [4]), 23000 nM and 23400 nM; on MmΔIBBIMPα (setting [8]) it was 31000 nM; in data set [1] (setting [10]), 2700 ± 700 nM; in [1] (setting [11]), 2000 nM. Besides, the “fold lower IC50 for PfIMPα compared to both TgIMPα and MmIMPα” value on PfIMPα [3] (range over both comparisons) is 12-16 fold. Moreover, the “MmIMPα stable only up to” value at MmIMPα (10–20 µM) is 30–36 °C. Moreover, on MmIMPα (10–20 µM), the “reduction of thermostability of MmIMPα” value was 9–15 °C. This compound also came in with a CC50 in the data set on HFF cells of 8200 ± 700 nM. The “TgIMPα stable only up to” value at TgIMPα (10–20 µM) was 30–36 °C. The “reduction of thermostability of TgIMPα” value at TgIMPα (10–20 µM) is 9–15 °C. For the same compound, the “% Inhibition of IMPα-NLS Interaction MmΔIBBIMPα” value on MmΔIBBIMPα (setting [7]) was 9%. Further, the “fold higher IC50 for ΔIBBMmIMPα-NLS compared to PfIMPα-TGS-NLS interaction” value at MmΔIBBIMPα (selectivity for PfIMPα) is about 12 fold. In data set [1] (setting [9]), the “reduction in luciferase activity, indicative of T. gondii growth inhibition” value is listed as over 50%. In addition, the “T. gondii parasite killing” value in [1] is reported as at least 60%. Also, at PfIMPα [2] (setting [12]), the “increase of stability of PfIMPα” value was 9–11 °C. Besides, the results for the “thermostability of PfIMPα reached” value on PfIMPα [2] (setting [12]) and at PfIMPα [2] (concentrations up to 10 µM) were 48–50 °C and 39 °C, respectively. Moreover, the “reduction of stability of PfIMPα” value at PfIMPα [2] (concentrations up to 10 µM) was 6 °C.

The values are drawn from paper PMC8997399, “High-Throughput Screening to Identify Inhibitors of Plasmodium falciparum Importin α” (Cells, 2022).
